This note sets out measurements from patent publication US20260306527A1, “PRMT INHIBITOR COMPOUNDS AND THE USES THEREOF” (Purdue Research Foundation, priority 2023, published 2026).

Holding throughout (format): biochemical
Experiment [1] has as its target T1, PRMT4 (Homo sapiens, UniProt Q86X55).
T1 sequence (Q86X55 1-608): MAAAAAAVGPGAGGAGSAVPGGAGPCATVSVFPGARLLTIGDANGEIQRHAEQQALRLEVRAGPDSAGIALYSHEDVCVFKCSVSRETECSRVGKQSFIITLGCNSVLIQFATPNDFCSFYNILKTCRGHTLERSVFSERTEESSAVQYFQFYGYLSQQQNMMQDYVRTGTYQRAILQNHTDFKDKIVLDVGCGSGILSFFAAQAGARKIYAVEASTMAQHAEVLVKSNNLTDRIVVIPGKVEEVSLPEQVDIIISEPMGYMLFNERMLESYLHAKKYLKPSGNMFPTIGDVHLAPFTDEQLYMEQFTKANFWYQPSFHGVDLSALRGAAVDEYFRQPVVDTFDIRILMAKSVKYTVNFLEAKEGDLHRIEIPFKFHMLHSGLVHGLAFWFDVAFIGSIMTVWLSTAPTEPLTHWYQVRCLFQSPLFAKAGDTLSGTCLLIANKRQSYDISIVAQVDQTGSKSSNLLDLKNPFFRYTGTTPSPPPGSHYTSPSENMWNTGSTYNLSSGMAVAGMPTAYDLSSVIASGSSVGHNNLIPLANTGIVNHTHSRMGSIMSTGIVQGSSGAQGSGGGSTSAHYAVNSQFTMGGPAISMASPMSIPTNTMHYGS
The experiment is described as follows: radioactive assay (Reaction Biology Corp.), inhibition of PRMT4. The protocol:
(§1) Next, the inhibition activity of the library was investigated for five PRMT members from type I PRMTs.
(§2) The PRMT 4, 6 and 8 methylation assays were performed by Reaction Biology corp.

Experiment [2] deals with PRMT6 (Homo sapiens, UniProt Q96LA8). The experiment is described as follows: radioactive assay (Reaction Biology Corp.), inhibition of PRMT6. The protocol: as §1, §2
Sequence of PRMT6 (Q96LA8 whole entry, species assumed): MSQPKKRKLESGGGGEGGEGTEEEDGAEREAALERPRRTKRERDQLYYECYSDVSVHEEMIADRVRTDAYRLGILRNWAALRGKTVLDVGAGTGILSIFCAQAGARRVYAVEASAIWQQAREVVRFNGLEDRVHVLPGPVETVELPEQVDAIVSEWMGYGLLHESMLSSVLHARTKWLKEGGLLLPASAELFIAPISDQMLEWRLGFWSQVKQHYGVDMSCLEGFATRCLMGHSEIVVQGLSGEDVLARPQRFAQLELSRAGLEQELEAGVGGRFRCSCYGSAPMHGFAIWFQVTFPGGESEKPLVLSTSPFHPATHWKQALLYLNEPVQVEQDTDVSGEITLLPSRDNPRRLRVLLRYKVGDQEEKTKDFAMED
The target of experiment [3] is T2, PRMT1 (Homo sapiens, UniProt Q99873).
T2 construct: made in house
T2 sequence (Q99873 whole entry, species assumed): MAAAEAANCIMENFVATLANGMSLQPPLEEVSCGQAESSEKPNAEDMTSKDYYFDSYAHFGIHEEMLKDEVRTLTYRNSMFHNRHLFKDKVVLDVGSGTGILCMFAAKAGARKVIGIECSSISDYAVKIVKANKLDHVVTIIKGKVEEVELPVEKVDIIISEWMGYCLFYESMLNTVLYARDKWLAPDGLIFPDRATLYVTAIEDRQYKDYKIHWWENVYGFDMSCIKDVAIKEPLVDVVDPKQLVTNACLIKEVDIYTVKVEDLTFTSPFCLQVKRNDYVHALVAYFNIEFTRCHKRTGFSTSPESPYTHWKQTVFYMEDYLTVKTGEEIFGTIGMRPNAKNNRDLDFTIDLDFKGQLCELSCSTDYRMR
The experiment is described as follows: SAHH-coupled fluorescence assay, inhibition of PRMT1. The protocol:
(§3) A fluorescence-based SAHH-coupled assay was applied to study the inhibition activity of all synthesized compounds on PRMT 1 and 3.
(§4) The PRMT1 methylation assay was performed under the following conditions in a final well volume of 100 μL: 2.5 mM HEPES (pH=7.0), 25 mM NaCl, 25 μM EDTA, 50 μM TCEP, 0.01% Triton X-100, 5 μM SAHH, 0.1 μM PRMT1, 10 μM AdoMet, and 10 μM ThioGlo4. […] The fluorescence signal was monitored on a BMG CLARIOstar microplate reader with excitation at 400 nm and emission at 465 nm for 15 min. Data were processed using GraphPad Prism software 8.0.
as §1
as §4, with “A fluorescence-based SAHH-coupled assay was applied to determine the inhibition activity of all synthesized compounds on PRMT 1 and 3. The PRMT1” for “The PRMT1”, “software 8.0. All experiments were performed in duplicate.” for “software 8.0.”

The target of experiment [4] is PRMT8 (Homo sapiens, UniProt Q9NR22). The experiment is described as follows: radioactive assay (Reaction Biology Corp.), inhibition of PRMT8. The protocol: as §1, §2
Sequence of PRMT8 (Q9NR22 whole entry, species assumed, the tested form may be a part): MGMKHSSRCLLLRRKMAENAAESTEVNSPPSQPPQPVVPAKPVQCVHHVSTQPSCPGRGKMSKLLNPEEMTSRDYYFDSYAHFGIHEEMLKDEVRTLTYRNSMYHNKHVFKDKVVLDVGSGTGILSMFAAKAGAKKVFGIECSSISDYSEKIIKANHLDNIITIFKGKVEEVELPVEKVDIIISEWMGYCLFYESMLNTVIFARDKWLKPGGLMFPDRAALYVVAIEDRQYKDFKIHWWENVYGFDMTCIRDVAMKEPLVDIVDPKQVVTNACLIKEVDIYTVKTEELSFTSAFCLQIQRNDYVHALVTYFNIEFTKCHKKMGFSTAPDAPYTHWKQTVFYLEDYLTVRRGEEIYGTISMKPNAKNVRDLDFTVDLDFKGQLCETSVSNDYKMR
Experiment [5] has as its target PRMT3 (Homo sapiens, UniProt O60678). The experiment is described as follows: SAHH-coupled fluorescence assay, inhibition of PRMT3. On the set-up: PRMT3 (residues 211-531) was cloned into the pET28a-MHL expression vector; tag of the pET28a-MHL vector (not described); made in house; host or cells: Escherichia coli BL21(DE3). How it is done: as §3
The PRMT3 methylation assay was performed under the following conditions in a final well volume of 100 μL: 20 mM Tris (pH=7.5), 0.01% Triton X-100, 5 μM SAHH, 0.25 μM PRMT3, 30 μM AdoMet, and 15 μM ThioGlo4. […] Fluorescence was monitored on a BMG CLARIOstar microplate reader with excitation 380 nm and emission 505 nm. Data were processed by using GraphPad Prism software 8.0. All experiments were performed in duplicate.
as §1
The PRMT3 methylation assay was performed under the following conditions in a final well volume of 100 μL: 20 mM Tris (pH=7.5), 0.01% Triton X-100, 5 μM SAHH, 0.25 μM PRMT3, 30 μM AdoMet, and 15 μM ThioGlo4. […] Fluorescence was monitored on a BMG CLARIOstar microplate reader with excitation 380 nm and emission 505 nm. Data were processed by using GraphPad Prism software 8.0.

Broadly, the inhibition is the relative decrease from the control value, in per cent.

Structures are written as SMILES. “Also recorded” adds a separate entry of the source.

Sequence of PRMT3 (O60678 211-531): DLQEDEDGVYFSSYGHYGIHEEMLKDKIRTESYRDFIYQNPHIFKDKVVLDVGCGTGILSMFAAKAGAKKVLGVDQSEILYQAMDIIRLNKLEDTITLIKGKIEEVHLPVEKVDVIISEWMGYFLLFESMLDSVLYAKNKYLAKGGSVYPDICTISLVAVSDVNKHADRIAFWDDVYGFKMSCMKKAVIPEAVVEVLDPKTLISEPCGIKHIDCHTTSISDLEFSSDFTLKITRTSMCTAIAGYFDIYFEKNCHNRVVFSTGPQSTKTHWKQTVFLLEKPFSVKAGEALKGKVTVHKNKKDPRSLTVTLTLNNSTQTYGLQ

Consider `Nc1ncnc2c1ncn2[C@@H]1O[C@H](CSCCCNC(=O)NCCCc2ccccc2)[C@@H](O)[C@H]1O` [Compound 7q], for which the inhibition at 10 µM in experiment [1] is 62%; in experiment [2], -6%; in experiment [3] it was 18%; in experiment [4], 16%; in experiment [5], 5%.
For the compound `Nc1ncnc2c1ncn2[C@@H]1O[C@H](CSCCCNC(=O)NCCc2ccccc2)[C@@H](O)[C@H]1O` [Compound 7r], the inhibition at 10 µM in experiment [1] came out at 47%; in experiment [2], 49%; in experiment [3], 14%; in experiment [4], 22%; in experiment [5], 6%.
For `N=C(NCCCSC[C@H]1O[C@@H](n2cnc3c(N)ncnc32)[C@H](O)[C@@H]1O)Nc1cccc(F)c1` [Compound 7s], in that order: 58%, 49%, 23%, -12% and 9%.
For `Nc1ccc(-c2ccc(CNC(=O)NCCSC[C@H]3O[C@@H](n4cnc5c(N)ncnc54)[C@H](O)[C@@H]3O)cc2)cc1` [Compound 8a], the inhibition at 10 µM was 40% in experiment [1]; 72% in experiment [2]; 13% in experiment [3]; 0% in experiment [4]; 3% in experiment [5].
Turning to `Nc1cccc(-c2ccc(CNC(=O)NCCSC[C@H]3O[C@@H](n4cnc5c(N)ncnc54)[C@H](O)[C@@H]3O)cc2)c1` [Compound 8b], the inhibition at 10 µM in experiment [1] came to 43%; in experiment [2] it was 79%; in experiment [3], 7%; in experiment [4], 0%; in experiment [5] it was 5%.
The like results for `Nc1ncnc2c1ncn2[C@@H]1O[C@H](CSCCNC(=O)NCc2ccc(-c3ccc(O)cc3)cc2)[C@@H](O)[C@H]1O` [Compound 8c] were, in that order, 42%, 82%, 21%, 3% and 10%.
Consider `Nc1ncnc2c1ncn2[C@@H]1O[C@H](CSCCNC(=O)NCc2ccc(-c3cccc(O)c3)cc2)[C@@H](O)[C@H]1O` [Compound 8d], for which the inhibition at 10 µM in experiment [1] amounted to 37%; in experiment [2] it was 88%; in experiment [3], 22%; in experiment [4], 15%; in experiment [5] it was 9%.
Take `Nc1ncnc2c1ncn2[C@@H]1O[C@H](CSCCNC(=O)NCc2ccc(-c3ccccc3O)cc2)[C@@H](O)[C@H]1O` [Compound 8e]: the inhibition at 10 µM in experiment [1] was 53%; in experiment [2], -2%; in experiment [3], 11%; in experiment [4] it was -2%; in experiment [5] it was 13%.
As for `Nc1ncnc2c1ncn2[C@@H]1O[C@H](CSCCNC(=O)NCc2ccc(-c3cc[nH]n3)cc2)[C@@H](O)[C@H]1O` [Compound 8f], the inhibition at 10 µM in experiment [1] was 17%; in experiment [2] it was -6%; in experiment [3] it was 27%; in experiment [4] it was 2%; in experiment [5], 9%.
In the case of `Nc1ncnc2c1ncn2[C@@H]1O[C@H](CSCCNC(=O)NCc2ccc(-c3cn[nH]c3)cc2)[C@@H](O)[C@H]1O` [Compound 8g], the inhibition at 10 µM in experiment [1] is 19%; in experiment [2], 5%; in experiment [3], 2%; in experiment [4] it was 5%; in experiment [5], 10%.
`Nc1ncnc2c1ncn2[C@@H]1O[C@H](CSCCNCc2cccc(-c3ccc(Cl)cc3)c2)[C@@H](O)[C@H]1O` [Compound 10a]: in experiment [1], the “PRMT4 inhibition” value was “equal potency on PRMT4; also recorded: more potent PRMT4 inhibition activity than SGC8158”. For the same compound, the inhibition at 10 µM in experiment [1] was 99%; in experiment [2], 57%; in experiment [3], 16%; in experiment [4] it was 71%; in experiment [5], 16%.
`Nc1ncnc2c1ncn2[C@@H]1O[C@H](CSCCNCc2cccc(-c3ccc(O)cc3)c2)[C@@H](O)[C@H]1O` [Compound 10b]: the inhibition at 10 µM in experiment [1] worked out at 100%; in experiment [2], 55%; in experiment [3], 19%; in experiment [4] it was 67%; in experiment [5] it was 1%.
For `Nc1ncnc2c1ncn2[C@@H]1O[C@H](CSCCNCc2cccc(-c3cccc(F)c3)c2)[C@@H](O)[C@H]1O` [Compound 10c], in that order: 100%, 49%, 11%, 68% and 12%.
Consider `Nc1ncnc2c1ncn2[C@@H]1O[C@H](CSCCNCc2cccc(-c3ccc(C(F)(F)F)cc3)c2)[C@@H](O)[C@H]1O` [Compound 10e], for which the inhibition at 10 µM in experiment [1] was 99%; in experiment [2], 57%; in experiment [3] it was 2%; in experiment [4], 67%; in experiment [5] it was 15%.
As to `Nc1ncnc2c1ncn2[C@@H]1O[C@H](CSCCNCc2cccc(-c3ccc(F)c(O)c3)c2)[C@@H](O)[C@H]1O` [Compound 10f], the inhibition at 10 µM in experiment [1] is 99%; in experiment [2], 54%; in experiment [3] it was 7%; in experiment [4] it was 80%; in experiment [5], 20%.
`Nc1ncnc2c1ncn2[C@@H]1O[C@H](CSCCNCc2cccc(-c3cccc4cn[nH]c34)c2)[C@@H](O)[C@H]1O` [Compound 10h]: the inhibition at 10 µM came to 100% in experiment [1]; 82% in experiment [2]; 1% in experiment [3]; 58% in experiment [4]; 12% in experiment [5].
For `Nc1ncnc2c1ncn2[C@@H]1O[C@H](CSCCNCc2cccc(-c3cccc(O)c3)c2)[C@@H](O)[C@H]1O` [Compound 10i], in that order: 100%, 55%, 15%, 74% and 13%.
Consider `Nc1ncnc2c1ncn2[C@@H]1O[C@H](CSCCNCc2cccc(-c3ccccc3O)c2)[C@@H](O)[C@H]1O` [Compound 10j], for which the inhibition at 10 µM in experiment [1] was 99%; in experiment [2], 43%; in experiment [3], 25%; in experiment [4], 56%; in experiment [5], 10%.
With `Nc1ncnc2c1ncn2[C@@H]1O[C@H](CSCCNCc2cccc(-c3ccncc3)c2)[C@@H](O)[C@H]1O` [Compound 10k], the inhibition at 10 µM was determined as 99% in experiment [1]; 43% in experiment [2]; 15% in experiment [3]; 69% in experiment [4]; 10% in experiment [5].
